The source of these data is paper PMC5933457, “Probing biological activity through structural modelling of ligand-receptor interactions of 2,4-disubstituted thiazole retinoids” (Bioorganic & Medicinal Chemistry, 2018).

In one experiment the test system is TERA2.cl.SP12 cells. The experiment is described as follows: Immunocytochemistry for A2B5, TUJ-1 and cytokeratin 8. It counts as cell-based, human. To be noted: for expression of epithelial phenotype marker cytokeratin 8: 10 μM, 1, 2 and 3 weeks, Fig. 7D; for neuronal differentiation by TUJ-1 staining: up to 3 weeks. Here is the method:
Third, we carried out assessment of protein expression using immunofluorescent techniques on cultures of TERA2.cl.SP12 cells treated with retinoids.
TERA2.cl.SP12 cells were seeded at 5000 cells per well on poly-D-lysine (25 μg/ml) coated cover slips in 6-well plates. Cells were treated with each retinoid at a concentration of 10 μM for 7, 14 and 21 days (the media was changed every 3–4 days). Cells were also treated with 1% DMSO for the same time periods as a […] control. At the end of the treatment period, cells were fixed (4% para-formaldehyde in PBS for 30 min at room temperature (RT) and rinsed with PBS. One set of experiments was used for the cell surface marker A2B5 (diluted 1:100, R&D systems), and the other set was prepared for intracellular staining using 1% Triton-X-100 (Sigma Aldrich) in PBS as a permeabilizing agent for 10 min at RT. Non-specific labeling was blocked by incubation with a solution of 1% goat serum (Sigma Aldrich) containing 0.2% Tween-20 (Sigma Aldrich) in PBS for one hour at RT. The primary antibodies β-III tubulin antibody (TUJ-1) (1:200, Affymetrix eBioscience) and CK-8 antibody (1:500, Affymetrix eBioscience) were diluted in blocking solution and incubated with the cells for 1 h at RT. After washing three times for 15 min with PBS, cells were incubated for 1 h in the dark with anti-mouse FITC-conjugated secondary antibody IgM (1:128, Sigma Aldrich) for A2B5 staining, and anti-mouse Alexafluor 488 IgG (1:600, Invitrogen) for TUJ-1 and CK-8 staining. Hoechst 33,342 nuclear staining dye (1:1000, Molecular Probes) was dissolved in blocking solution after the secondary antibody staining step for nuclear staining.
Immunocytofluorescent images of fixed cells were visualized using a Leica SP5 confocal microscope. Scale bars are shown at 25 μm.

For experiment [1], the target named is T1, RARβ ligand-binding domain (GST-RAR-β-LBD) (Homo sapiens, UniProt P10826).
T1 construct: purchased Invitrogen
T1 sequence (P10826 183-417 limits assumed): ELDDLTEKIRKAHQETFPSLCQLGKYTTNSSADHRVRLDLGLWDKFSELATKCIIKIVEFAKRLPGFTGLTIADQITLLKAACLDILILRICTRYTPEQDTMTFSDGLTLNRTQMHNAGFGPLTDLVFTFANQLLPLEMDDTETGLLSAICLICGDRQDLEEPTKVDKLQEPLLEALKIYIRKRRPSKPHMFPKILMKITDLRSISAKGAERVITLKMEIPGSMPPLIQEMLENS
Briefly: LanthaScreen TR-FRET RARβ co-activator (receptor binding) assay. In kind it is biochemical. The conditions noted are these: for EC50: estimated EC50, TR-FRET co-activator assay, 4 h incubation, read-out: EC50 (95% confidence range) RARβ; for binding-curve upper asymptote (coactivator recruitment), RARβ: in words, Fig. 6B. As for the experimental part: These predictions were tested through a receptor-binding assay for each RAR isotype (Fig. 6), where the assay signal is dependent on two parameters: the binding affinity of ligand to the RAR LBD, and the affinity of the coactivator for the ligand-LBD complex. For this assay, binding curves and variation in level of the upper asymptote can reflect differences in co-activator affinity for the ligand-LBD complex; variation in affinity of ligand for LBD shifts the midpoint (EC50) of the binding curve, whereas changes in the level of the upper asymptote may result from changes in coactivator affinity for the ligand-LBD complex alone, or in combination with changes in affinity for ligand with LBD.[23]
The binding interaction of each retinoid with RARα, β and γ were determined in vitro by time-resolved fluorescence resonance energy transfer (TR-FRET) using the LanthaScreen TR-FRET RARα, RARβ, and RARγ co-activator assays according to the manufacturer’s (Invitrogen™) instructions.[23] This uses a terbium-labeled anti-GST antibody, a fluorescein-labeled co activator peptide, and RARα/β/γ ligand-binding domains (LBD) that are tagged with glutathione-S-transferase (GST) in a homogenous assay format. All experiments were performed in black, 384-well low-volume plates in the dark at RT with a 4 h incubation time. The final assay volume was 20 μL and all dilutions were carried out using TR-FRET assay buffer, with a final DMSO concentration of 1%. A mixture of either 3.5 nM GST-RAR-α-LBD or 2.5 nM GST-RAR-β-LBD or 3 nM GST-RAR-γ-LBD with 62.5 nM Tb-anti GST antibody and 30 μM fluorescein-labeled peptide and retinoid or DMSO control was added to each of the wells. Each ligand assay was performed in duplicate and measured using a PHERAstar FS Microplate Reader (BMG Labtech, Ortenberg, Germany) with instrument settings as described in the manufacturer’s instructions for LanthaScreen assays. The TR-FRET signal was expressed as the ratio of the signals at 520 nm and 490 nm. The data were fitted to a three-parameter ligand-binding curve using SigmaPlot (version 12.5, Systat Software Inc., San Jose CA) and normalized to the lower asymptote of each binding curve. […] Since the assay involves interactions between ligand and LBD, and ligand-dependent interactions between the LBD and fluorescein-labeled co activator, the binding assay data were interpreted by simulating these coupled chemical reactions using the biochemical simulator COPASI version 4.3.[23], [54]
The readout of the Lanthascreen TR-FRET binding assay is based on a Forster resonance energy transfer (FRET) signal generated from the interaction between a terbium-labelled anti-glutathione-S-transferase (GST) antibody and a fluorescein-labelled coactivator peptide. The RAR ligand-binding domain (LBD) is a GST fusion protein and interaction between the LBD and the fluorescein-labelled coactivator peptide is driven by the binding of ligand to the LBD, and detected by the FRET signal from the terbium/fluorescein interaction when the terbium-labelled anti-GST binds the LBD fusion protein. The output of the assay thus relies on two binding interactions: ligand with LBD, and ligand-bound LBD with the coactivator peptide. As both interactions may be affected by the fit of ligand to the binding pocket of the LBD, we used the biochemical pathway simulator COPASI^1 to build a simple model of how the FRET signal output in the assay will vary according to differential changes in the kinetics of the two binding interactions. Reactions were modelled deterministically using mass-action kinetics described by ordinary differential equations (ODE) within COPASI.^1 This model enables us to assess the effect of different rate constants and varying ligand concentration on the formation of the final ternary complex that is the read-out from the Lanthascreen TR-FRET assay.

SMILES strings stand for the structures.

Turning to `CCOCCOc1nc(-c2ccc(C(=O)O)cc2)sc1C` [GZ18], in the experiment on TERA2.cl.SP12 cells, the “expression of epithelial phenotype marker cytokeratin 8” value is “more effective”. The “neuronal differentiation by TUJ-1 staining” value in the experiment with TERA2.cl.SP12 cells (10 μM, Fig. 7C) was “very low activity”. Moreover, in experiment [1], the EC50 is 56.7 nM and the “binding-curve upper asymptote (coactivator recruitment), RARβ” value is “very low asymptotes”.
On the same counts, the results for `CCOC(=O)c1ccc(-c2nc(-c3ccccc3)c(C)s2)cc1` [GZ22] are “more effective”, “very low activity”, 136 nM and “high asymptote”.
Take `Cc1sc(-c2ccc(C(=O)O)cc2)nc1-c1ccc2c(c1)C(C)(C)CCC2(C)C` [GZ25]: in the experiment with TERA2.cl.SP12 cells, the “expression of epithelial phenotype marker cytokeratin 8” value is “not detectable”. For the same compound, in the experiment with TERA2.cl.SP12 cells (10 μM, after 7 days, Fig. 7C), the “expression of neuronal differentiation marker A2B5 (immunofluorescence)” value was “induced”. Moreover, the “neuronal differentiation by TUJ-1 staining” value in the experiment with TERA2.cl.SP12 cells (10 μM, Fig. 7C) is given as “most effective”. In addition, the EC50 in experiment [1] is 11 nM.

In general, EC50 refers to the concentration at which the effect is half-maximal.
